Measurements from patent publication US8119773B2, “Compositions and methods for facilitating heme-iron export from cells” (University of Washington, priority 2007, dated 2012).
Ends that are not written are not given here.

How the values were obtained:
[1] = target: T1, human FLVCR (Homo sapiens, UniProt Q9Y5Y0); test: ZnMP export from NRK cells engineered to express human FLVCR, with carrier protein; format: cell-based; conditions: NRK cells expressing human FLVCR; 37° C. for 90 min
T1 construct: expressed in transfected cells; host or cells: NRK (rat kidney) cells engineered to express human FLVCR
T1 sequence (Q9Y5Y0 1-555): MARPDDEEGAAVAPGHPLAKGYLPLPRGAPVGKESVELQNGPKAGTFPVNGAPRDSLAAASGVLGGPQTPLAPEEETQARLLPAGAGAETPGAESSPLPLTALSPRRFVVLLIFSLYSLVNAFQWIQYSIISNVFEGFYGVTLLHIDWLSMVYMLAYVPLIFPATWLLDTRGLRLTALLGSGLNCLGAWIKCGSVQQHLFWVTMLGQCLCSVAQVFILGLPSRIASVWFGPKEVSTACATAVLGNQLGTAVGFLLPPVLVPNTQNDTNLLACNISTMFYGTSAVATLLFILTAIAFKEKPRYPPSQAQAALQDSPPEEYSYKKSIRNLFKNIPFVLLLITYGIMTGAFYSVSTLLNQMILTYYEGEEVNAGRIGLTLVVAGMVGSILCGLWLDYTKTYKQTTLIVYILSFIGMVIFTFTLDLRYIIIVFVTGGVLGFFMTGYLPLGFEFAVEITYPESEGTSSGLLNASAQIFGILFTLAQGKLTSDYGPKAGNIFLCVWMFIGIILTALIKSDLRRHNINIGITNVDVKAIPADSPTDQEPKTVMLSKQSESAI
From the text: ZnMP and ^55Fe-hemin uptake and washout studies.
To gain insights into the structure and function of FLVCR, we first studied the export of zinc mesoporphyrin (ZnMP), a fluorescent heme analog that traffics similarly to heme and also blocks heme oxygenase activity.

[2] = heme binding; cited from earlier work
[3] = system: bone marrow-derived macrophages; test: Ferritin studies in macrophages (ELISA) with or without hepcidin; format: cell-based, mouse; conditions: control and Flvcr-deleted macrophages exposed to FAC (10 μM Fe) 24 hours, washed, then 24 hours with hepcidin (1 ug/ul)
Protocol: FIGS. 4A-4B. FLVCR exports heme-iron from macrophages. (4A) Bone marrow-derived macrophages from control (striped) and mice in which Flvcr was deleted neonatally (black) were incubated in the absence or presence of FAC (10 μM Fe) for 24 or 48 hours, then washed; ferritin was measured by enzyme-linked immunosorbent (ELISA) (i). Cells were incubated with FAC for 24 hours (ii) or with IgG-coated red blood cells (RBC) for 90 min (iii), washed, then incubated for an additional 24 hours with or without hepcidin (1 ug/ul) and ferritin assayed. Data represent ferritin values in macrophages derived from two control and two deleted mice±SEM of triplicate samples per mouse. (4B) Model of macrophage heme-iron recycling.
Murine macrophage culture. Single-cell suspensions of mouse bone marrow were collected from mice 5 days after completing poly(I)-poly(C) treatment. […] Macrophages were defined by flow cytometry (Mac-1^+, f4/80^+, GR-1^−) and analyzed for ZnMP and ^55Fe-hemin export 10-24 days post in vivo deletion (after 5-19 days in culture).
Ferritin studies in macrophages. […] After 24 hrs, the samples were collected in lysis buffer (150 mM NaCl, 10 mM EDTA, 1% Triton X-100, 10 mM Tris pH 7.4), and complete protease inhibitor (Roche Diagnostics Co., Indianapolis, Ind.) and analyzed for ferritin levels as described (S16).

hemopexin [Hpx]
efficacy in inducing ZnMP export, relative to albumin [1]: 100 fold
Kd [2]: < 1 pM

hepcidin (DTHFPICIFCCGCCHRSKCGMCCKT; ends and bridges not checked; cysteine pairing not given here; UniProt P81172 60-84, looked up)
ferritin [3]: increase equivalently
